Tests used:
[1] = system: ΦX 174 DNA Plasmid (Form I); experiment: Cleavage of ΦX 174 DNA plasmid (form I), compound alone or activated with KHSO5; format: biochemical, phage ΦX 174; details: for S (single-strand breaks per DNA molecule) / form % I / form % II / form % III: DNA 3.5 nM, compound 10 nM
From the text: The DNA cleavage activity was quantified in terms of number of single-strand breaks per DNA molecule according to the equation […], Io=% form I (supercoiled DNA) in the DNA control, and I=% form I in the experiment (see Bernadou et al, Biochemistry, 28: 7268-7275, (1989)). This assay is very sensitive and is able to detect very low levels of DNA activity. S values less than S=1.0 are indicative of very low DNA cleavage activity when the compounds are at a concentration of equal to or less than 1000 nM and KHSO5 is present at a concentration of equal to or less than 100 μM.
ΦX 174 DNA digestion conditions for standard experiments were as follows: commercially available DNA was diluted to 50 μg/mL in phosphate buffer (10 mM, pH 7.5). The reaction involved 5 μL of ΦX 174 DNA (50 μg/mL, 74.8 μM in base pairs), 5 μL of 40 mM phosphate buffer, pH 7.5 with 400 mM NaCl, 5 μL of metalloporphyrin in double-distilled water or 5 μL of iron-bleomycin complex in double-distilled water, and 5 μL of KHSO5 or 5 μL of H2O2 or 5 μL of ascorbate in double-distilled water. Preincubation of DNA and metalloporphyrins or iron-bleomycin complex was performed for about 15 min. The digestion time in the presence of KHSO5 was 10 min, of H2O2 was 30 min and of ascorbate was 30 min at 20° C. DNA cleavage was monitored by agarose gel electrophoresis. Reactions with KHSO5 were first quenched by 2 μL of 100 mM Hepes buffer, pH 8. In all cases, reactions were quenched by 5 μL of a stopping reagent. The stopping reagent consisted of 250 mM Hepes buffer, pH 7.4, containing 75% glycerol and 0.05% bromophenol blue. Reaction mixtures were then run in 0.8% agarose slab horizontal gel containing ethidium bromide […], at constant current (25 mA for 15h), in 89 mM Tris-borate buffer and 2.5 mM EDTA pH 8.3. Bands were located by WV light (254 nm), photographed, and quantitated by microdensitometry. The correction coefficient 1.47±0.30 was used for decreased stainability of form I DNA vs form II DNA and form III DNA.

[2] = system: ΦX 174 DNA Plasmid (Form I); details: literature (Bernadou 1989, Vialas 2000, Meunier 1992); cited from earlier work
[3] = Superoxide dismutase activity, xanthine-xanthine oxidase / cytochrome C; format: biochemical; details: reciprocal of IC50; xanthine 60 μM, xanthine oxidase 0.009 units/ml, cytochrome C 27.8 μM
Experimental: Superoxide Dismutase Activity was measured by incubating the compound with a superoxide generating system (Xanthine, 60 μM-Xanthine Oxidase, 0.009 units/ml) and a detector molecule (Cytochrome C, 27.8 μM). Upon reacting with a molecule of superoxide, Cytochrome C undergoes a spectrum-shift which can be detected as an increase in absorbance at 550 nm. In this assay procedure, the reactant concentrations were adjusted to give a reaction rate close to 0.1 AU/min. at 2-3 min. after the reaction began. Addition of compounds with Superoxide Dismutase activity reduce the rate of absorbance change. Compounds were assayed at several concentrations (typically at 0, 2, 4, and 8 μM) and the resulting rates were graphed and fitted to a linear regression formula. The linear regression formula was then solved to determine the concentration of compound required to reduce the reaction rate to 50% of the rate without compound present (IC50).

[4] = Catalase activity, hydrogen peroxide consumed at 20 minutes; format: biochemical; details: over 20 minutes; 10 μM compound, 100 μM hydrogen peroxide, 40 mM sodium phosphate pH 7.4
Experimental: (§1) Catalase activity was measured by incubating the sample compound with hydrogen peroxide and determining the amount of hydrogen peroxide remaining after a period of time using a colorimetric peroxidase-coupled assay method. 10 μM sample compound and 100 μM hydrogen peroxide in 40 mM sodium phosphate pH 7.4 were incubated together at ambient temperature in a multi-well plate. After the desired reaction period had elapsed, 20 μl of peroxidase/ABTS reagent was added (peroxidase/ABTS reagent contained 100 μl of 50 mM Na phosphate, pH 7.4, 1 mg horseradish peroxidase (1310 U/mg) and […]). After five minutes, absorbance at 750 nm was determined. The amount of hydrogen peroxide remaining was calculated based on a standard curve. To compare rates of catalase reaction, the amount of hydrogen peroxide consumed at 20 minutes was determined (See table III). It was also of interest to determine the total number of turnovers completed by the compound before inactivation by hydrogen peroxide. This was assayed under similar conditions, except that 15.8 μM compound was combined with 1582 μM hydrogen peroxide in 5 mM Na phosphate, pH 7.4. Reactions were allowed to proceed to completion and then the amount of hydrogen peroxide remaining was determined as described above. Results showing […] in the turnover assay (nmoles hydrogen peroxide per nmole compound) are also shown in Table III.

[5] = Peroxidase activity, ABTS oxidation; format: biochemical; details: 10 μM compound, 200 μM hydrogen peroxide, 500 μM ABTS, pH 8.1, 740 nm
Experimental: Peroxidase activity was measured by incubating 10 μM compound, 200 μM hydrogen peroxide and 500 μM ABTS in 50 mM sodium phosphate, pH 8.1. The rate of ABTS oxidation was monitored at 740 nm and initial rates (change in absorbance per min.) determined.

[6] = Catalase turnover assay, total hydrogen peroxide consumed before inactivation; format: biochemical; details: to completion, 15.8 μM compound, 1582 μM hydrogen peroxide, 5 mM Na phosphate pH 7.4
Experimental: as §1

[7] = system: CBA/J female mice, oxazolone-induced inflammatory ear edema; experiment: Delayed type hypersensitivity: oxazolone-induced ear edema; format: in vivo
From the text: CBA/J female mice (Jackson Labs, Bar Harbor, ME) 7 weeks of age were pre-sensitized with 3% oxazolone (Sigma Chemical Co., St. Louis, Mo.) in 99.9% acetone, on the abdomen. After 8 days, the mice were challenged with 1.2% oxazolone topically on one ear to induce an inflammatory edema. Either Structural Formula V, Structural Formula IV at a dose of 7 nmoles/ear each, or ethanol, i.e. vehicle control (eight mice per study group), was applied topically to the ear immediately after the oxazolone challenge. Ear edema was measured by comparing the tissue water content (the wet weight minus the dry weight) of the challenged ear to that of the control ear. The percent edema (% water in the right ear-left ear) in the vehicle control was 6.5% and 2.1% and 3.9% for Structural Formula V and Structural Formula IV, respectively at a dose of 7 nmoles/ear.

| Structure (SMILES) | S (single-strand breaks per DNA molecule) ([1]; KHSO5 10 μM) [SSBs] | form % I ([1]; KHSO5 10 μM) [%] | form % II ([1]; KHSO5 10 μM) [%] | form % III ([1]; KHSO5 10 μM) [%] | S (single-strand breaks per DNA molecule) ([1]; without KHSO5) [SSBs] | form % I ([1]; without KHSO5) [%] | form % II ([1]; without KHSO5) [%] | form % III ([1]; without KHSO5) [%] | times more active in DNA cleavage than Structural Formula V ([1]; same concentration (10 nM), with KHSO5, from experiments 6, 9 and 10) [times] | oxidative DNA cleavage (literature statement) [2] | Cyt C SOD 1/(IC50, μM) [3] [µM⁻¹] | CATALASE* Rate at 20 mins. [4] | PEROXIDASE Initial Rate [5] | CATALASE** H2O2 Consumption [6] | effect on edema compared to vehicle ([7]; 7 nmoles/ear topically) | percent edema (% water in the right ear-left ear) ([7]; 7 nmoles/ear topically immediately after oxazolone challenge, vehicle control 6.5%) [%] |
| --- | --- | --- | --- | --- | --- | --- | --- | --- | --- | --- | --- | --- | --- | --- | --- | --- |
| C[n+]1ccc(-c2c3nc(c(-c4cc[n+](C)cc4)c4ccc([n-]4)c(-c4cc[n+](C)cc4)c4nc(c(-c5cc[n+](C)cc5)c5ccc2[n-]5)C=C4)C=C3)cc1.[Mn+3] [MnTMPyP, 5, 10, 15, 20 meso-tetrakis(4-methylpyridiniumyl)porphyrinato-manganese (III), reference compound] | 15.3 | 1 | 86 | 13 | 0.03 | 90 | 10 | 0 | 1527 | able to generate DNA damage at nanomolar concentrations | 0.143 | 3.4 nmole H2O2/nmole Structural Formula compound | 0.0672 change in absorbance per min. | 31.1 nmole H2O2/nmole Structural Formula compound |  |  |
| CC[NH+](CC)CCNS(=O)(=O)c1c(C)cc(C)c(C2=C3C=CC4=[N+]3[Mn-]35[n]6c2ccc6C(c2c(C)cc(C)c(S(=O)(=O)NCC[NH+](CC)CC)c2C)=C2C=CC(=[N+]23)C(c2c(C)cc(C)c(S(=O)(=O)NCC[NH+](CC)CC)c2C)=c2ccc([n]25)=C4c2c(C)cc(C)c(S(=O)(=O)NCC[NH+](CC)CC)c2C)c1C.[Cl-].[Cl-].[Cl-].[Cl-].[Cl-] [Structural Formula IV, meso-tetrakis[3-(N-(2-(N,N-diethylammonio)ethyl)aminosulfonyl)-2,4,6-trimethylphenyl]porphyrinato diaqua-manganese (III) pentachloride] |  |  |  |  |  |  |  |  |  |  | 0.043 | 1.0 nmole H2O2/nmole Structural Formula compound | 0.021 change in absorbance per min. | 189.9 nmole H2O2/nmole Structural Formula compound | effective in reducing the percentage of edema | 3.9 |
